Columns and labels:
CD1 male mice = assay: object recognition test in normal mice; assay type: in vivo
Source text: FIG. 1 illustrates the results of the effect of a co-treatment with 2-(cyclohexyl methyl)-N-{2-[(2S)-1-methyl pyrrolidin-2-yl]ethyl}-1,2,3,4-tetrahydroisoquinoline-7-sulfonamide and donepezil on recognition memory in normal mice at various delays using the object recognition task.
The results of this study are depicted in FIG. 1.

[1] = tested on: patients with mild to moderate Alzheimer's disease; assay: clinical study, treatment emergent adverse events (TEAE); assay type: in vivo, human; conditions: for Patients with an TEAE / Patients with any treatment emergent serious adverse event / TEAE: Anxiety / TEAE: Cardiac disorders / TEAE: Depressive disorders / TEAE: Dermatitis / TEAE: Diarrhea / TEAE: Dyspepsia / TEAE: Gastrointestinal disorders / TEAE: Hiatus hernia / TEAE: Infections and infestations / TEAE: Muscle spasm / TEAE: Musculoskeletal and connective tissue disorders / TEAE: Other (Falls) / TEAE: Psychiatric disorders / TEAE: Rashes / TEAE: Skin and subcutaneous tissue disorders / TEAE: Sleep disorders and Disturbance / TEAE: Vascular disorders: with donepezil
Description: (§1) A randomized, double-blind, parallel-group, placebo-controlled clinical trial was performed to study the effect on cognitive performance, safety, and tolerability of 2-(cyclohexylmethyl)-N-{2-[(2S)-1-methylpyrrolidin-2-yl]ethyl}-1,2,3,4-tetrahydroisoquinoline-7-sulfonamide difumarate monohydrate as adjunct treatment to donepezil.
(§2) More specifically, patients with mild to moderate Alzheimer's disease on stable donepezil therapy were randomized to receive doses of 0.5 mg, 2 mg, or 5 mg/day of 2-(cyclohexylmethyl)-N-{2-[(2S)-1-methylpyrrolidin-2-yl]ethyl}-1,2,3,4-tetrahydroisoquinoline-7-sulfonamide difumarate monohydrate or placebo for 24 weeks, with a 10 week follow-up period.
(§3) Patients were randomized to receive 0.5 mg, 2 mg, or 5 mg of 2-(cyclohexylmethyl)-N-{2-[(2S)-1-methylpyrrolidin-2-yl]ethyl}-1,2,3,4-tetrahydroisoquinoline-7-sulfonamide difumarate monohydrate (measured in base form), or matching placebo once a day, with donepezil (5 mg or 10 mg in the form the patient took prior to enrollment), for 24 weeks, with or without food.

[2] = tested on: patients with mild to moderate Alzheimer's disease; assay: clinical study, Neuropsychiatric Inventory (NPI) domain scores; assay type: in vivo, human; conditions: 0.5 mg/day with donepezil
Description: as §1, §2, §3
[…] (NPI) domain scores of irritability/lability, anxiety, agitation/aggression, sleep and nighttime behavior disorders, aberrant motor behaviour, apathy/indifference, appetite/eating change, delusions, depression/dysphoria, disinhibition, elation/euphoria, and hallucinations.

## CN1CCC[C@H]1CCNS(=O)(=O)c1ccc2c(c1)CN(CC1CCCCC1)CC2 [API, 2-(cyclohexylmethyl)-N-{2-[(2S)-1-methylpyrrolidin-2-yl]ethyl}-1,2,3,4-tetrahydroisoquinoline-7-sulfonamide difumarate monohydrate]
CD1 male mice; 3 mg/kg co-administered with 3 mg/kg donepezil hydrochloride, 48 hours post administration
  procognitive effect of co-administration in object recognition test: significant procognitive effect
CD1 male mice; 3 mg/kg oral, individually, 24 hours after administration
  memory in object recognition test: enhanced the memory
CD1 male mice; 3 mg/kg oral, individually, after 48 hours
  procognitive effect in object recognition test: lack of procognitive effect
[1]; 0.5 mg (N = 72)
  Patients with an TEAE: 53 (73.6%)
  Patients with any treatment emergent serious adverse event: 10 (13.9%)
  TEAE: Anxiety: 3 (4.2%)
  TEAE: Cardiac disorders: 5 (6.9%)
  TEAE: Depressive disorders: 1 (1.4%)
  TEAE: Dermatitis: 1 (1.4%)
  TEAE: Diarrhea: 7 (9.7%)
  TEAE: Dyspepsia: 1 (1.4%)
  TEAE: Gastrointestinal disorders: 11 (15.3%)
  TEAE: Hiatus hernia: 0%
  TEAE: Infections and infestations: 20 (27.8%)
  TEAE: Muscle spasm: 1 (1.4%)
  TEAE: Musculoskeletal and connective tissue disorders: 5 (6.9%)
  TEAE: Other (Falls): 9 (12.5%)
  TEAE: Psychiatric disorders: 21 (29.2%)
  TEAE: Rashes: 1 (1.4%)
  TEAE: Skin and subcutaneous tissue disorders: 7 (9.7%)
  TEAE: Sleep disorders and Disturbance: 12 (16.7%)
  TEAE: Vascular disorders: 2 (2.8%)
[1]; 2 mg (N = 72)
  Patients with an TEAE: 54 (76.1%)
  Patients with any treatment emergent serious adverse event: 10 (14.1%)
  TEAE: Anxiety: 4 (5.6%)
  TEAE: Cardiac disorders: 3 (4.2%)
  TEAE: Depressive disorders: 2 (2.8%)
  TEAE: Dermatitis: 3 (4.2%)
  TEAE: Diarrhea: 7 (9.9%)
  TEAE: Dyspepsia: 1 (1.4%)
  TEAE: Gastrointestinal disorders: 18 (25.4%)
  TEAE: Hiatus hernia: 0%
  TEAE: Infections and infestations: 11 (15.5%)
  TEAE: Muscle spasm: 2 (2.8%)
  TEAE: Musculoskeletal and connective tissue disorders: 12 (16.9%)
  TEAE: Other (Falls): 7 (9.9%)
  TEAE: Psychiatric disorders: 18 (25.4%)
  TEAE: Rashes: 4 (5.6%)
  TEAE: Skin and subcutaneous tissue disorders: 15 (21.1%)
  TEAE: Sleep disorders and Disturbance: 11 (15.5%)
  TEAE: Vascular disorders: 3 (4.3%)
[1]; 5 mg (N = 69)
  Patients with an TEAE: 59 (85.5%)
  Patients with any treatment emergent serious adverse event: 8 (11.6%)
  TEAE: Anxiety: 4 (5.8%)
  TEAE: Cardiac disorders: 5 (7.2%)
  TEAE: Depressive disorders: 5 (7.2%)
  TEAE: Dermatitis: 3 (4.3%)
  TEAE: Diarrhea: 4 (5.8%)
  TEAE: Dyspepsia: 3 (4.3%)
  TEAE: Gastrointestinal disorders: 17 (24.6%)
  TEAE: Hiatus hernia: 3 (4.3%)
  TEAE: Infections and infestations: 16 (23.2%)
  TEAE: Muscle spasm: 7 (10.6%)
  TEAE: Musculoskeletal and connective tissue disorders: 16 (23.2%)
  TEAE: Other (Falls): 7 (10.1%)
  TEAE: Psychiatric disorders: 27 (39.1%)
  TEAE: Rashes: 1 (1.4%)
  TEAE: Skin and subcutaneous tissue disorders: 5 (7.2%)
  TEAE: Sleep disorders and Disturbance: 21 (30.4%)
  TEAE: Vascular disorders: 3 (4.3%)
[1]; 5 mg group
  sleep disorders and disturbances, incidence among groups: highest incidence
[1]; 0.5, 2, 5 mg/day with donepezil, 24 weeks
  safety and tolerability: safe and well tolerated
[1]; all treated groups
  vascular disorders, incidence over placebo: low incidence
[2]
  NPI Abberant motor behavior, Ch from bl W12: −0.08
  NPI Abberant motor behavior, Ch from bl W24: 0.42
  NPI Agitation/Aggression, Ch from bl W12: 0.23
  NPI Agitation/Aggression, Ch from bl W24: 0.04
  NPI Anxiety, Ch from bl W12: 0.20

From US20160256449A1, “H3 RECEPTOR ANTAGONIST FOR USE IN THE TREATMENT OF ALZHEIMER'S DISEASE” (SANOFI, priority 2013, published 2016)
